From patent publication US11077159B2, “Compositions from halophyte plants and methods of use thereof” (KHALIFA UNIVERSITY OF SCIENCE AND TECHNOLOGY, priority 2017, dated 2021)
Where “and” joins values, the source holds several entries; their conditions need not be identical. Equal entries are not always repeated.

Columns and labels:
[1] = tested on: matrix metalloproteinase-1 (MMP-1) release; experiment: MMP-1 release by aged fibroblasts (ELISA), anti-aging; assay type: cell-based, human; conditions: 10^−7M
Excerpt: […] The matrix metalloproteinase-1 (MMP-1) assay using a specific ELISA kit was used to evaluate anti-aging properties. The migration/proliferation of NHEK using kinetic image analysis of the wound recovery was used to evaluate cell renewal properties. The IL-8 release on NHEK stimulated by PMA using a specific ELISA kit was used to evaluate anti-inflammatory properties.

[2] = DPPH free radical scavenging (antioxidant) assay; assay type: biochemical; conditions: positive control, 0.3 mg/mL; ± standard error
Description: Two controls were used in the DPPH assay; a negative control containing all reagents except for the test extract, and a positive control using a final concentration of 0.33 mg/mL L-ascorbic acid as antioxidant instead of test extract. Radical scavenging activity was calculated as follows: Scavenging activity (%)=[(Acontrol−Atest)/[…]]*100 Where Acontrol is the negative control (without test extract), and Atest is the absorbance with the botanical extract. All analysis were carried out in triplicate.

Hyaluronic acid = Hyaluronic acid synthesis; assay type: cell-based; conditions: 10^−7M
IL-8 release of NHEK = IL-8 release of NHEK stimulated by PMA (ELISA), anti-inflammatory; assay type: cell-based, human; conditions: 10^−9M
Excerpt: The matrix metalloproteinase-1 (MMP-1) assay using a specific ELISA kit was used to evaluate anti-aging properties. The migration/proliferation of NHEK using kinetic image analysis of the wound recovery was used to evaluate cell renewal properties. The IL-8 release on NHEK stimulated by PMA using a specific ELISA kit was used to evaluate anti-inflammatory properties.

[3] = Scavenging of reactive oxygen species; conditions: control reference, concentration not given

C[C@@H]1C[C@H]2[C@@H]3CCC4=CC(=O)C=C[C@]4(C)[C@@]3(F)[C@@H](O)C[C@]2(C)[C@@]1(O)C(=O)CO [Dexamethasone]
MMP-1 % Control (P17-F) [1]: 58%
inhibition at 0.1 µM ([1]; Homo sapiens, Fibroblast): 42%
MMP-1 (ng/ml) dilution factor adjusted ([1]; P17-F aged fibroblasts, single replicate): 8.7 ng/mL and 8.2 ng/mL and 8.5 ng/mL
MMP-1 Mean ([1]; P17-F): 8.5 ng/mL

O=C1O[C@H]([C@@H](O)CO)C(O)=C1O [L-ascorbic acid]
DPPH scavenging activity [2]: 95.79±0.17%

CC1=C(/C=C/C(C)=C/C=C/C(C)=C/C(=O)O)C(C)(C)CCC1 [Retinoic acid]
Hyaluronic acid % Control (Hyaluronic acid): 241%
Hyaluronic acid % Stimulation (Hyaluronic acid): 141%
Hyaluronic acid Mean (Hyaluronic acid): 655.7 ng/mL
Hyaluronic acid (ng/ml) dilution factor adjusted (Hyaluronic acid; single replicate): 677.2 ng/mL and 632.1 ng/mL and 657.9 ng/mL

CN[C@@H]1C[C@H]2O[C@@](C)([C@@H]1OC)n1c3ccccc3c3c4c(c5c6ccccc6n2c5c31)C(=O)NC4 [Staurosporine]
IL-8 % Stimulated control (IL-8 release of NHEK): 54%
IL-8 Mean (IL-8 release of NHEK; PMA 0.1 μg/ml): 1685 pg/mL
IL-8 (pg/ml) dilution factor adjusted (IL-8 release of NHEK; PMA 0.1 μg/ml, non-diluted sample, single replicate): 1579 pg/mL and 1809 pg/mL and 1668 pg/mL

Vitamin-E
ROS scavenged [3]: 92%
